PMC10587737, “Dracorhodin targeting CMPK2 attenuates inflammation: A novel approach to sepsis therapy” (Clinical and Translational Medicine, 2023)

What was measured:
[1] = target: CMPK2^Lys282 protein; test: MST binding to CMPK2 Lys282 mutant; parameters: species or system human; conditions: Lys282 mutated
Protocol: (§1) Human CMPK2 and K265, K282 and K320 mutated CMPK2 cDNA were cloned and inserted into the pTT5 vector, and the constructed plasmid was amplified by the DH5α strain. The C‐terminus of the cDNA was fused with a 6× His tag, and the N‐terminus was truncated by 22 amino acids (Figure 1B–F and Supporting Information Figure S5A,B). When the free‐style 293‐F cells reached the proper density, approximately 1 mg of expression plasmid was premixed with 3 mg polyethylenimine in UltraFectin medium and incubated prior to transfection. This mixture was then added to the appropriate amount of fresh cell culture medium, incubated for 30 min and collected after 48 h.
(§2) The MST assay is an emerging technique used to quantitatively elucidate binding. The binding parameter between CMPK2 and DP was measured using MST on a Monolith NT.115 system (Germany). CMPK2 was fluorescently labeled with the Monolith NT Protein Labeling Kit RED (L018, NanoTemper Technologies GmbH, Munich, Germany) according to the manufacturer’s instructions. The Monolith NT.115 system was used with Monolith NT.115 standard capillaries (M0-K022). MST assay buffer was used to dilute the labeled CMPK2 to 2 μM. […] The binding and dissociation constants (Kd) were evaluated and calculated using M0-Affinity analysis software version 2.1.3 (Nano Temper Technologies) for the ligand.

[2] = target: CMPK2^Lys320 protein; test: MST binding to CMPK2 Lys320 mutant; parameters: species or system human; conditions: Lys320 mutated
Protocol: as §1, §2

[3] = system: cellular CMPK2 activity in BMDMs; test: Effect on cellular CMPK2 activity (ADP-Glo on cell lysates); format: cell-based, mouse
Protocol: Primary BMDMs were generated by culturing mouse bone marrow cells in the presence of 20 ng/ml M-CSF conditioned medium for 7 days. BMDMs were seeded in 6-well plates overnight in FBS-free DMEM. After adhering to the wall, different concentrations of DP were added and treated for 12 hours. On day 2, after priming with ultrapure LPS (200 ng/ml) for 4 h, BMDMs (1 × 10^6 cells/ml) were further stimulated with ATP (4 mM) or Nigericin (10 μM) for 45 min. Cell lysates were collected for ADP-Glo™ Kinase Assay (Promega, Madison, WI, USA).

[4] = system: NLRP3 inflammasome in BMDMs; test: NLRP3 inflammasome activation in LPS-primed BMDMs (ATP/Nigericin; ELISA, immunoblot); format: cell-based, mouse; conditions: DP 2.5, 5, 10 μM, supernatant
Protocol: Mouse bone marrow cells (isolated from the legs of mice) were cultured in DMEM supplemented with 20% FBS. BMDMs were generated by culturing mouse bone marrow cells in the presence of 20 ng/ml M-CSF-conditioned medium for 7 days. BMDMs were seeded in 6- or 48-well plates overnight in FBS-free DMEM. On day 2, after priming with ultrapure LPS (200 ng/ml) for 4 h, BMDMs (1 × 10^6 cells/ml) were further stimulated with ATP (4 mM) or nigericin (10 μM) for 45 min. Supernatants and cell lysates were collected for ELISA and immunoblot analyses.
The cytokines mouse IL-1β and TNF-α in supernatants from serum, cell culture, and tissue culture were assayed by ELISA kits (R&D Systems, Minneapolis, MN, USA) according to the manufacturer’s instructions.
Cells were lysed in NP-40 buffer containing a protease inhibitor cocktail (Roche, 11836153001) and a phosphatase inhibitor cocktail (Sigma-Aldrich, P5726). Protein concentrations were quantified using a BCA Protein Assay Kit (Beyotime, 5000T P0011). Equal amounts of protein were separated by SDS-PAGE and transferred onto nitrocellulose membranes. The membranes were then incubated with antibodies against CMPK2, NLRP3, ASC, pro-caspase-1, pro-IL-1β, GAPDH, caspase-1 and IL-1β, followed by incubation with the appropriate secondary HRP-conjugated antibodies and development with ECL.

[5] = system: ASC oligomerization in BMDMs; test: ASC oligomerization assay; format: cell-based, mouse; conditions: DP 12 h before or 1 h after LPS; ATP/Nigericin
Protocol: BMDMs were seeded at 1×10^6 cells/ml in 6-well plates. After cell adherence, BMDMs were treated with different concentrations of DP. The following day, the medium was replaced, and the cells were primed with 200 ng/ml LPS for 4 h and then stimulated with Nigericin or ATP for 45 min. BMDMs were primed with 200 ng/ml LPS for 4 h. The cells were treated with DP for 1 h and then stimulated with Nigericin or ATP for 45 min. The supernatant was removed, the cells were rinsed in ice-cold PBS, and then, the cells were lysed with NP-40 for 30 min. Lysates were centrifuged at 6000×g for 10 min at 4°C. The pellets were washed twice in 200 μl of ice-cold PBS and resuspended in 200 μl of PBS. Then, 2 mM disuccinimidyl suberate (DSS) was added to the resuspended pellets, which were incubated at room temperature for 30 min with rotation. Samples were then centrifuged at 6000×g for 10 min at 4°C. The cross-linked pellets were resuspended in 40 μl of 2× loading buffer and then boiled and analyzed by immunoblotting.

[6] = system: LPS-induced septic shock in Cmpk2^∆DMye mice; test: LPS-induced septic shock in myeloid-specific Cmpk2-deficient mice; format: in vivo, mouse; conditions: DP 40 mg/kg, LPS 20 mg/kg, 72 h
Protocol: The C57BL/6J mice used in the studies were obtained from the Model Animal Research Center of Shanghai University of Traditional Chinese Medicine. All animals were housed under a 12-hr light/dark cycle at 22-24°C with unrestricted access to food and water for the duration of the experiment except during fasting tests. Myeloid-specific Cmpk2-deficient (Cmpk2^DMye) mice were donated by Prof. Huazhang An from Shandong Provincial Key Laboratory for Rheumatic Disease and Translational Medicine. All animal experiments were approved by the Regional Ethics Committee of Shanghai University of Traditional Chinese Medicine.
Sepsis was induced by intraperitoneal injection of 8- to 12-week-old gender-matched wild-type mice with LPS (E. coli O111:B4, Sigma-Aldrich) at 20 mg per kg body weight. Mouse survival was monitored every 1 h after injection for a total of 72 h. In a separate experiment, mice were treated with the same dose of LPS, and immune sera were collected 6 h post injection. Then, the abdominal cavity was washed with PBS. The levels of IL-1β and TNF-α in serum and peritoneal lavage ﬂuid were determined by ELISA. Then, the livers, kidneys and lungs were immediately removed and washed in ice-cold PBS. They were fixed with 4% paraformaldehyde, which was used for hematoxylin-eosin (H&E), Masson staining and Sirius red staining.

## COc1c2ccc(-c3ccccc3)oc-2cc(=O)c1C [compound 73, Dracohodin perochlorate]
[1]
  binding (Kd by MST): no binding
[2]
  binding (Kd by MST): no binding
[3]; DP 10 μM
  cellular CMPK2 inhibition: enhanced significantly
[3]; DP 2.5 and 5 μM
  cellular CMPK2 enzyme activity: tendency to inhibit
[4]; 12 h before or 1 h after LPS
  lysis of p20 (caspase-1): inhibited
  secretion of p17 (IL-1β): inhibited
[4]
  production of TNF-α: had no effect
[5]
  ASC oligomerization: blocked
[6]
  survival rate: did not further improve
